Assay results reported in PMC9312091, “Mining Amphibian and Insect Transcriptomes for Antimicrobial Peptide Sequences with rAMPage” (Antibiotics, 2022).
Peptide text beside a SMILES is read from it.

Test system: E. coli and/or S. aureus
Experiment: Antimicrobial susceptibility testing (MIC and MBC), summary statements
Format: cell-based
Details: AST in vitro against E. coli ATCC 25922 and S. aureus ATCC 29213
Procedure: A total of 21 of the 1137 putative AMPs (Table S2) were synthesized (Genscript Biotech, Piscataway, NJ, USA) and tested for their antimicrobial activity against Escherichia coli ATCC 25922 and Staphylococcus aureus ATCC 29213 in a minimum of three independent experiments (see Figure S5 for a full set of experimental results). In these antimicrobial susceptibility tests, AMP activity was assessed using two metrics: minimum inhibitory and bactericidal concentrations (MIC and MBC, respectively). Lower MIC and MBC values are desirable as they indicate that lower AMP concentrations are sufficient for inhibitory or bactericidal activity, respectively. AMP toxicity was measured by HC50 hemolytic concentration values—the concentration required to lyse ≥ 50% of porcine red blood cells. […]
Twenty-one putative AMP sequences identified using the rAMPage pipeline were validated through a minimum of three AST experiments performed independently on separate days. In these tests, the AMP activity was assessed using two metrics: minimum inhibitory concentration and minimum bactericidal concentration (MIC and MBC, respectively). MIC and MBC values were determined using procedures outlined by the Clinical and Laboratory Standards Institute (CLSI), with the recommended adaptations for the testing of cationic AMPs described previously. […]

Q: How did the “antimicrobial activity (in words)” value turn out when CC(C)C[C@H](NC(=O)[C@H](CCCCN)NC(=O)[C@H](CCC(=O)O)NC(=O)[C@H](CC(C)C)NC(=O)[C@H](CCCNC(=N)N)NC(=O)[C@@H](NC(=O)[C@H](Cc1ccc(O)cc1)NC(=O)[C@H](CC(N)=O)NC(=O)[C@H](CCCCN)NC(=O)[C@H](CCCCN)NC(=O)[C@H](CC(N)=O)NC(=O)[C@@H](NC(=O)[C@H](CC(C)C)NC(=O)[C@H](CCCCN)NC(=O)[C@H](CCCCN)NC(=O)[C@@H](NC(=O)[C@H](CO)NC(=O)[C@H](CCCCN)NC(=O)[C@H](CO)NC(=O)[C@H](CC(C)C)NC(=O)[C@H](Cc1c[nH]c2ccccc12)NC(=O)[C@@H](N)CO)C(C)C)C(C)C)[C@@H](C)O)C(=O)N[C@@H](C)C(=O)N[C@@H](CCCCN)C(=O)N[C@@H](CCCCN)C(=O)N[C@@H](CCCCN)C(=O)N[C@@H](CC(C)C)C(=O)N[C@@H](Cc1ccccc1)C(=O)N[C@@H](CC(N)=O)C(=O)N[C@@H](CCC(=O)O)C(=O)O [TeRu4] (H-SWLSKSVKKLVNKKNYTRLEKLAKKKLFNE-OH; N-terminus and C-terminus assumed) was run?
A: active only against E. coli
